Assay results from article PMC5456363 (PLoS ONE, 2017).
“And” between values parts separate entries of the source, which are not always exact repeats. Equal entries are not always repeated. “Also recorded” adds a separate entry of the source. Non-standard residues stand in square brackets, D forms with d. Residues, ends and D or L forms follow the SMILES beside them. No end group written: not given here. *: point of attachment. Orn(α-tetramethylguanidino) = CN(C)C(=N[C@@H](CCCN)C(=O)*)N(C)C; Orn = NCCC[C@H](N)C(=O)O

Key:
[1] = Peptide stability in fresh blood taken by cardiac puncture into a syringe containing the peptide (blood, B); type: in vitro ADME, CD-1 mice; settings: blood, 37°C, 1 h, 31.5 μmol/L; for remaining at 1 h: CD-1, mouse, fresh whole blood, read-out: intact peptide remaining relative to time zero
Experimental: (§1) All stability tests were performed at least in triplicates.

[2] = Peptide stability in direct serum (DS); type: in vitro ADME, CD-1 mice; settings: 37°C, 1 h, 31.5 μmol/L; for remaining at 1 h, 31.5 μmol/L: CD-1, mouse, direct serum (supernatant of blood centrifuged immediately), read-out: intact peptide remaining relative to time zero
Experimental: as §1

[3] = Peptide stability in activated serum (AS); type: in vitro ADME, CD-1 mice; settings: 37°C, 1 h, 31.5 μmol/L; for remaining at 1 h, 31.5 μmol/L: CD-1, mouse, read-out: intact peptide remaining relative to time zero
Experimental: as §1

[4] = Peptide stability in commercial serum (CS); type: in vitro ADME, mouse; settings: commercial mouse serum, 37°C, 1 h, 31.5 μmol/L; for remaining at 1 h, 31.5 μmol/L: commercial pooled serum, read-out: intact peptide remaining relative to time zero
Experimental: as §1

[5] = Peptide stability in heparin plasma (HP); type: in vitro ADME, CD-1 mouse; settings: 37°C, 1 h, 31.5 μmol/L
Experimental: as §1

[6] = Peptide stability in EDTA plasma (EP); type: in vitro ADME, CD-1 mouse; settings: 37°C, 1 h, 31.5 μmol/L
Experimental: as §1

[7] = cited from earlier work
[8] = Stability and metabolites across fresh blood, serum and plasma (all six matrices); settings: for Overall stability / Sequential stability: fresh blood, serum, and plasma
Experimental: Aqueous peptide solutions (3 g/L) were filled in a sterile syringe (1 mL, Dispomed Witt oHG, Gelnhausen, Deutschland) through the front end, the stainless-steel needle was attached, and blood (200 to 300 μL) was collected via cardiac puncture to obtain a peptide concentration of approximately 31,5 μmol/L. The syringe was carefully disconnected from the needle and sealed while keeping the needle in the heart. A second empty syringe was attached to the needle and 0.5 to 0.8 mL blood were collected. In parallel, the sealed syringe was gently shaken for one minute to mix the peptide solution with blood and further incubated on a Stuart Rotator SB3 (Barloworld, Scientific LTD, Stone, Staffordshire, U.K.) placed in an incubator at 37°C. […] The plasma sample designated as “blood” (B) was precipitated with trichloroacetic acid (TCA), as described below. Blood collected in the second syringe was transferred to a polypropylene tube (Eppendorf AG, Hamburg, Germany) and a BD Microtainer® serum separator tube (SST; Becton, Dickinson and Company). Polypropylene tubes were centrifuged immediately (12,000 x g, 2 to 4 min) to obtain “direct serum” (DS) as supernatant, whereas the serum separator tubes were incubated (room temperature, 1 h), centrifuged (12,000 x g, 2 min), and collected as “activated serum” (AS). Pooled mouse serum was purchased from PAA Laboratories GmbH (Pasching, Austria) and pooled CD-1 mouse plasma containing K2EDTA or lithium heparin were obtained from Innovative Research (Novi, MI, USA).
Peptides were mixed with serum or plasma to a final concentration of 31.5 μmol/L and incubated (37°C, 750 rpm; Thermomixer, Eppendorf AG, Hamburg, Germany). Aliquots (20 or 40 μL) taken after 0 and 60 min (0, 10 and 30 min for Api88) were mixed with TCA to obtain a final concentration of 3% (w/v) and incubated on ice (10 min). After centrifugation (12,000 x g, 5 min), the supernatant was neutralized with sodium hydroxide (1 mol/L) and stored at −20°C. Samples were analyzed by RP-HPLC on a Jupiter C18-column (internal diameter: 2 mm, length: 150 mm, particle size: 5 μm, pore size: 30 nm) using a linear aqueous acetonitrile gradient containing TFA (0.1%, v/v) as ion pair reagent. Peptides were detected by recording the absorbance at 214 nm and quantified by their peak areas relative to the initial peak areas (0 min). All stability tests were performed at least in triplicates.
Metabolites were identified on an Agilent 1100 LC system (Agilent Technologies, Santa Clara, CA, USA) coupled on-line via a UV-detector (absorbance recorded at 214 nm) to the electrospray ionization source on an ion trap mass spectrometer (ESI-IT-MS, Esquire HCT, Bruker Daltonics GmbH, Bremen, Germany). Samples were separated on an Aqua C18-column (inner diameter: 2 mm, length: 150 mm, particle size: 3 μm, pore size: 12.5 nm, Phenomenex; column temperature: 60°C) at a flow rate of 0.2 mL/min using a linear gradient of aqueous acetonitrile in the presence of formic acid (FA; 0.1%, v/v) as ion pair reagent. […] The ESI-IT-MS was operated in positive ion mode. Ionization was carried out at 365°C (source temperature) using nitrogen as curtain gas (40 psi) and dry gas (9 L/min). Mass spectra were acquired for an m/z range from 400 to 1300 at a scan rate of 8100 m/z-units per second in standard enhanced mode.

[9] = “direct serum” (DS): blood in polypropylene tubes centrifuged immediately; settings: CD-1 mice, 37°C, up to 60 min
[10] = “activated serum” (AS): serum separator tubes incubated (room temperature, 1 h), centrifuged; settings: CD-1 mice, 37°C, up to 60 min
[11] = blood collected via cardiac puncture into a syringe containing the peptide solution (“blood”, B); settings: CD-1 mice, 37°C, up to 60 min
[12] = Pooled mouse serum (PAA Laboratories), commercial serum (CS); settings: 37°C, up to 60 min
[13] = pooled CD-1 mouse plasma containing K2EDTA (EDTA plasma, EP); settings: 37°C, up to 60 min
[14] = pooled CD-1 mouse plasma containing lithium heparin (heparin plasma, HP); settings: 37°C, up to 60 min
[15] = tested on: human α-thrombin; assay: human α-thrombin; settings: up to 24 hours

CC[C@H](C)[C@H](NC(=O)[C@H](Cc1ccc(O)cc1)NC(=O)[C@@H](NC(=O)[C@@H]1CCCN1C(=O)[C@H](CCCNC(=N)N)NC(=O)[C@H](CC(N)=O)NC(=O)[C@H](CC(N)=O)NC(=O)[C@H](CCCN)N=C(N(C)C)N(C)C)C(C)C)C(=O)N1CCC[C@H]1C(=O)N[C@@H](CCCNC(=N)N)C(=O)N1CCC[C@H]1C(=O)N[C@@H](CCCNC(=N)N)C(=O)N1CCC[C@H]1C(=O)N1CCC[C@H]1C(=O)N[C@@H](Cc1c[nH]cn1)C(=O)N1CCC[C@H]1C(=O)N[C@@H](CCCN)C(=O)N[C@@H](CC(C)C)C(N)=O [Api134, gu-ONNRPVYIPRPRPPHPOL-NH2] ({Orn(α-tetramethylguanidino)}-NNRPVYIPRPRPPHP[Orn]L-NH2)
intact peptide remaining relative to time zero [1]: ≥ 94% | intact peptide remaining relative to time zero [2]: ≥ 94% | intact peptide remaining relative to time zero [3]: ≥ 94% | remaining at 1 h, 31.5 μmol/L [4]: 78 ± 2% | intact peptide remaining relative to time zero [5]: ≥ 94% | intact peptide remaining relative to time zero [6]: ≥ 94% | half-life time in mouse serum ([7]; in vitro, mouse serum): 4 h | Overall stability [8]: High | Sequential stability [8]: Blood = Plasma = Serum

CC[C@H](C)[C@H](NC(=O)[C@H](CCCN)NC(=O)[C@H](CCCNC(=N)N)NC(=O)[C@@H]1CCCN1C(=O)[C@@H]1CCCN1C(=O)[C@H](CCCNC(=N)N)NC(=O)[C@@H]1CCCN1C(=O)[C@H](CCCNC(=N)N)NC(=O)[C@@H]1CCCN1C(=O)[C@H](CC(C)C)NC(=O)[C@H](Cc1ccc(O)cc1)NC(=O)[C@@H]1CCCN1C(=O)[C@@H]1CCCN1C(=O)[C@H](CCCCN)NC(=O)[C@H](CC(=O)O)NC(=O)[C@@H](N)C(C)C)C(=O)N[C@@H](Cc1ccc(O)cc1)C(=O)N[C@@H](CC(N)=O)C(=O)N[C@@H](CCCN)C(N)=O [Onc72, VDKPPYLPRPRPPROIYNO-NH2] (H-VDKPPYLPRPRPPR[Orn]IYN[Orn]-NH2)
remaining at 1 h [1]: 103 ± 11% | remaining at 1 h, 31.5 μmol/L [2]: 94 ± 8% | remaining at 1 h, 31.5 μmol/L [3]: 80 ± 12% | remaining at 1 h, 31.5 μmol/L [4]: 64 ± 2% | remaining at 1 h, 31.5 μmol/L ([5]; CD-1, mouse, pooled plasma containing lithium heparin, read-out: intact peptide remaining relative to time zero): 62 ± 8% | remaining at 1 h, 31.5 μmol/L ([6]; CD-1, mouse, pooled plasma containing K2EDTA, read-out: intact peptide remaining relative to time zero): 47 ± 3% | serum half-life time ([7]; mouse serum): 3 h | peptide remaining in serum after one hour, previous study ([7]; serum, 1 h): 80% | Overall stability [8]: Medium | Sequential stability [8]: Blood = Serum > Plasma

DTEDKGEFLSEGGGVR
fragment found [9]: FPA(2–16); TEDKGEFLSEGGGVR; also recorded: FPA(3–16); EDKGEFLSEGGGVR | fragment found [10]: FPA(2–16); TEDKGEFLSEGGGVR; also recorded: FPA(3–16); EDKGEFLSEGGGVR | fragment found [11]: FPA(2–16); TEDKGEFLSEGGGVR, one hour; also recorded: FPA(3–16); EDKGEFLSEGGGVR, one hour

H-VDKPPYLPRPRPPRRIYNR-NH2
cleaved bond [12]: Arg14-Arg15, major; also recorded: Asn18-Arg19, major | cleaved bond [13]: Arg14-Arg15, major | fragment found [13]: Onc18(1–15); VDKPPYLPRPRPPRR-OH | cleaved bond [14]: Arg14-Arg15, major | fragment found [14]: Onc18(2–14); DKPPYLPRPRPPR-OH | cleaved bond [9]: Arg14-Arg15, major | fragment found [9]: Onc18(1–18); VDKPPYLPRPRPPRRIYN-OH | cleaved bond [10]: Arg14-Arg15, major | fragment found [10]: Onc18(1–18); VDKPPYLPRPRPPRRIYN-OH | cleaved bond [11]: Arg14-Arg15, major | fragment found [11]: Onc18(1–18); VDKPPYLPRPRPPRRIYN-OH

H-VDKPPYLPRPRPPRRIYNR-NH2 [Onc18, VDKPPYLPRPRPPRRIYNR-NH2]
remaining at 1 h [1]: 42 ± 12% | remaining at 1 h, 31.5 μmol/L [2]: 72 ± 4% | remaining at 1 h, 31.5 μmol/L [3]: 53 ± 4% | intact peptide remaining relative to time zero [4]: less than 13% | remaining at 1 h, 31.5 μmol/L [4]: 12 ± 1% | intact peptide remaining relative to time zero [5]: less than 13% | intact peptide remaining relative to time zero [6]: less than 13% | serum half-life time ([7]; mouse serum): 0.333 h and 0.417 h | fraction of peptide remaining in serum after 1 h, reported ([7]; serum, 1 h): around a quarter | Overall stability [8]: Medium | Sequential stability [8]: Blood = Serum > Plasma

VDKPPYLPRPRPPROIYNO-NH2 (H-VDKPPYLPRPRPPR[Orn]IYN[Orn]-NH2)
cleaved bond [12]: Arg14-Orn15, major; also recorded: Asn18-Orn19, major; also recorded: Orn15-Ile16 | cleaved bond [13]: Arg14-Orn15, major; also recorded: Asn18-Orn19, major; also recorded: Orn15-Ile16 | cleaved bond [14]: Arg14-Orn15, major; also recorded: Asn18-Orn19, major; also recorded: Orn15-Ile16 | cleaved bond [9]: Arg14-Orn15, major; also recorded: Asn18-Orn19, major | cleaved bond [10]: Arg14-Orn15, major; also recorded: Asn18-Orn19, major | cleaved bond [11]: Arg14-Orn15, major; also recorded: Asn18-Orn19, major

VDKPPYLPRPRPPRRIYN-OH [Onc18(1–18)]
Matrix in which the metabolite was identified ([8]; LC-MS, peak area at least 1% of initially incubated peptide, B blood, DS direct serum, AS activated serum, CS commercial serum, EP EDTA plasma, HP heparin plasma, All = all six): B, DS, AS, CS

VDKPPYLPRPRPPRrIYNr-NH2 (H-VDKPPYLPRPRPPR[dR]IYN[dR]-NH2)
not cleaved [12]: less than 2% being degraded after 1 hour | not cleaved [13]: at least 96% remaining after 1 hour | not cleaved [14]: at least 96% remaining after 1 hour | not cleaved [9]: at least 96% remaining after 1 hour | not cleaved [10]: at least 96% remaining after 1 hour | not cleaved [11]: at least 96% remaining after 1 hour

gu-ONNRPVYIPRPRPPHPOL-NH2 ({Orn(α-tetramethylguanidino)}-NNRPVYIPRPRPPHP[Orn]L-NH2)
fragment found [12]: Api134(1–17); also recorded: Api134 (1–16); also recorded: Api134(7–18); YIPRPRPPHPOL-NH2, major; also recorded: Api134 (8–18); IPRPRPPHPOL-NH2, major | not cleaved [13]: ≥94% intact peptide (one hour) | fragment found [14]: Api134(7–18), minor | fragment found [10]: Api134(1–17), minor; also recorded: Api134(1–15), minor; also recorded: Api134(7–18), minor | not cleaved [11]: ≥94% intact peptide (one hour)

gu-ONNRPVYIPRPRPPHPRL-NH2 ({Orn(α-tetramethylguanidino)}-NNRPVYIPRPRPPHPRL-NH2; SMILES CC[C@H](C)[C@H](NC(=O)[C@H](Cc1ccc(O)cc1)NC(=O)[C@@H](NC(=O)[C@@H]1CCCN1C(=O)[C@H](CCCNC(=N)N)NC(=O)[C@H](CC(N)=O)NC(=O)[C@H](CC(N)=O)NC(=O)[C@H](CCCN)N=C(N(C)C)N(C)C)C(C)C)C(=O)N1CCC[C@H]1C(=O)N[C@@H](CCCNC(=N)N)C(=O)N1CCC[C@H]1C(=O)N[C@@H](CCCNC(=N)N)C(=O)N1CCC[C@H]1C(=O)N1CCC[C@H]1C(=O)N[C@@H](Cc1c[nH]cn1)C(=O)N1CCC[C@H]1C(=O)N[C@@H](CCCNC(=N)N)C(=O)N[C@@H](CC(C)C)C(N)=O)
cleaved bond [15]: R17-L18, one hour | cleaved bond [12]: Arg17-Leu18, major | fragment found [12]: Api88(1–16); gu-ONNRPVYIPRPRPPHP-OH | cleaved bond [13]: Arg17-Leu18, major | cleaved bond [14]: Arg17-Leu18, major | cleaved bond [9]: Arg17-Leu18, major | fragment found [9]: Api88(1–16) | cleaved bond [10]: Arg17-Leu18, major | fragment found [10]: Api88(1–16) | cleaved bond [11]: Arg17-Leu18, major | fragment found [11]: Api88(1–16)

gu-ONNRPVYIPRPRPPHPRL-OH ({Orn(α-tetramethylguanidino)}-NNRPVYIPRPRPPHPRL-OH)
fragment found [15]: Api137(1–17), minor, 24 h | fragment found [12]: Api137(1–17); gu-ONNRPVYIPRPRPPHPR-OH; also recorded: Api137(1–16); gu-ONNRPVYIPRPRPPHP-OH; also recorded: Api137(1–15) | not cleaved [13]: ≥94% (one hour) | fragment found [14]: Api137(1–17); also recorded: Api137(1–16); also recorded: Api137(1–15); also recorded: Api137(7–18) | fragment found [9]: Api137(1–17); gu-ONNRPVYIPRPRPPHPR-OH; also recorded: Api137(1–16); also recorded: Api137(1–15) | fragment found [10]: Api137(1–17); also recorded: Api137(1–16); also recorded: Api137(1–15) | fragment found [11]: Api137(1–17); gu-ONNRPVYIPRPRPPHPR-OH; also recorded: Api137(1–16); also recorded: Api137(1–15); also recorded: Api137(7–18)
